Values of other authors, collected in patent US8372434B2, “Ophthalmic oil-in-water type emulsion with stable positive zeta potential” (Novagali Pharma SA, priority 2004, dated 2013).

Details: at 0.1% or 0.3% w/v

Structure (SMILES)	safety for ocular administration
CCCCCCCC/C=C\CCCCCCCCN [oleylamine]	safe for ocular administration
CCCCCCCCCCCCCCCCCCN [stearylamine]	safe for ocular administration
